Target: HER2YVMA (Homo sapiens, UniProt P04626, INS775YVMA)
Experiment: HER2 signaling (pHER2) in Hek293-HER2YVMA cells
Assay type: cell-based
Design: expressed in transfected cells; host or cells: HEK293 (pool), Ba/F3 (clones), BEAS2B (clones); lentiviral vector pCDH-CMV-MCS-EF1-Neo
Conditions: 1.5 hr compound, 1% FBS, read-out: HEKYVMA pHER2 EC50
Description: Cell culture, plasmid cloning, and lentiviral transduction were carried out according to standard procedures. The Human HER2 cDNA construct in pCMV6-Entry for the HER2 wildtype (WT) expression was obtained from Origene. The HER2 cDNA including the 12-nucleotide insertion corresponding to YVMA insertion (HER2YVMA) was codon optimized, synthesized and cloned by GenScript (Piscataway, NJ) in pcDNA3.1. The lentiviral constructs expressing HER2YVMA and HER2 WT were sub-cloned using PCR at System Biosciences (SBI, Mountainview, CA) into lentiviral vectors pCDH-CMV-MCS-EF1-Neo and lentiviral particles were generated.
Engineered lines expressing HER2YVMA and HER2 WT were prepared in HEK293 (human embryonic kidney cells), Ba/F3 (Interleukin 3 (IL3)-dependent murine pro B cell line), and BEAS2B (primary immortalized human bronchial epithelial cell line). Ba/F3, BEAS2B, and HEK293 cells were obtained from the American Type Culture Collection (ATCC, Manassas, VA). Parental Ba/F3 cells were grown in suspension in complete RPMI 1640 supplemented with 10% FBS and 1% P/S and 10 ng/ml interleukin 3 (IL3, Sigma-Aldrich). Hek293 and BEAS2B cells were grown as monolayers in DMEM supplemented with 10% FBS and 1% P/S. All cells were maintained and propagated in a humidified 5% CO2 incubator at 37° C.
To generate Ba/F3, BEAS2B, and Hek-293 cells engineered with lentivirus to express HER2 WT or HER2YVMA, the cells were transduced with lentiviruses at multiplicity of infection (MOI) of 1 or 10; transduced cells were selected and maintained with G418 ([…]) (Geneticin, Life Technologies, Carlsbad, CA). Ba/F3 engineered cells were subjected to gradual withdrawal of interleukin 3 (IL-3, Sigma-Aldrich). After selection, IL3 independent Ba/F3 HER2YVMA, and BEAS2B HER2YVMA cells were cloned by limiting dilution. Hek293 HER2YVMA cells were used as pool. HER2 and phospho HER2 levels were confirmed by flow cytometery and immunoassay (MSD, Meso-Scale Discovery, Rockville, Maryland).
HER2 signaling was assessed in BT474 and N87 cell lines which endogenously overexpress the HER2 wildtype (WT) protein, in NCI-H1781 cells which endogenously expresses a HER2 mutant protein containing a VC insertion in the kinase domain (HER2VC or G776delinsVC), and in engineered cell lines transduced to express the Her2 mutant protein containing the YVMA insertion (Hek293-HER2YVMA and BEAS2B-HER2YVMA).
BT474, N87, and NCI-H1781 were plated in 96-well tissue-culture treated plates (Corning Costar, Sigma-Aldrich) in full media and incubated overnight. Hek293-HER2YVMA and BEAS2B-HER2YVMA cells were plated in 96-well poly-D-lysine treated plates (BD Bioscience, San Jose, CA). For treatment with test compounds, the media was replaced with corresponding low serum media (1% FBS) containing test compound at 1.1, 0.37, 0.12, 0.041, 0.014, 0.005, 0.0014, 0.0005 μM or DMSO control (0.1%). Cells were incubated with compound for 1.5 hr at 37° C. After compound treatment, the media was removed and cells were lysed for 30 min on ice in complete MSD lysis buffer (prepared using MSD base lysis buffer (Meso-Scale Discovery) supplemented with cOmplete, EDTA-free Protease inhibitor cocktail (Roche), Phosphatase Inhibitor Cocktails 2 and 3 (Sigma-Aldrich), and 1 mM PMSF (Sigma-Aldrich)). Lysates were stored at −70° C. until further analysis.
HER2 signaling was evaluated using phospho (Tyr1248)/total ErbB2 whole cell lysate MSD plates (Meso-Scale Discovery, Gaithersburg, MD). The phospho HER2 signal was normalized to total HER2 for each sample; results are reported as % DMSO control. The normalized data was fitted using a sigmoidal curve analysis program (Graph Pad Prism version 6) with variable Hill slope to determine EC50 values.
The HER2 signaling results are provided in Table 4, under columns titled “BT474-pHER2 EC50”, “N87-pHER2 EC50”, and “NCI-H1781-pHER2 EC50”. […]

Sequence of HER2YVMA (P04626 with tags, fused parts or gaps INS775YVMA): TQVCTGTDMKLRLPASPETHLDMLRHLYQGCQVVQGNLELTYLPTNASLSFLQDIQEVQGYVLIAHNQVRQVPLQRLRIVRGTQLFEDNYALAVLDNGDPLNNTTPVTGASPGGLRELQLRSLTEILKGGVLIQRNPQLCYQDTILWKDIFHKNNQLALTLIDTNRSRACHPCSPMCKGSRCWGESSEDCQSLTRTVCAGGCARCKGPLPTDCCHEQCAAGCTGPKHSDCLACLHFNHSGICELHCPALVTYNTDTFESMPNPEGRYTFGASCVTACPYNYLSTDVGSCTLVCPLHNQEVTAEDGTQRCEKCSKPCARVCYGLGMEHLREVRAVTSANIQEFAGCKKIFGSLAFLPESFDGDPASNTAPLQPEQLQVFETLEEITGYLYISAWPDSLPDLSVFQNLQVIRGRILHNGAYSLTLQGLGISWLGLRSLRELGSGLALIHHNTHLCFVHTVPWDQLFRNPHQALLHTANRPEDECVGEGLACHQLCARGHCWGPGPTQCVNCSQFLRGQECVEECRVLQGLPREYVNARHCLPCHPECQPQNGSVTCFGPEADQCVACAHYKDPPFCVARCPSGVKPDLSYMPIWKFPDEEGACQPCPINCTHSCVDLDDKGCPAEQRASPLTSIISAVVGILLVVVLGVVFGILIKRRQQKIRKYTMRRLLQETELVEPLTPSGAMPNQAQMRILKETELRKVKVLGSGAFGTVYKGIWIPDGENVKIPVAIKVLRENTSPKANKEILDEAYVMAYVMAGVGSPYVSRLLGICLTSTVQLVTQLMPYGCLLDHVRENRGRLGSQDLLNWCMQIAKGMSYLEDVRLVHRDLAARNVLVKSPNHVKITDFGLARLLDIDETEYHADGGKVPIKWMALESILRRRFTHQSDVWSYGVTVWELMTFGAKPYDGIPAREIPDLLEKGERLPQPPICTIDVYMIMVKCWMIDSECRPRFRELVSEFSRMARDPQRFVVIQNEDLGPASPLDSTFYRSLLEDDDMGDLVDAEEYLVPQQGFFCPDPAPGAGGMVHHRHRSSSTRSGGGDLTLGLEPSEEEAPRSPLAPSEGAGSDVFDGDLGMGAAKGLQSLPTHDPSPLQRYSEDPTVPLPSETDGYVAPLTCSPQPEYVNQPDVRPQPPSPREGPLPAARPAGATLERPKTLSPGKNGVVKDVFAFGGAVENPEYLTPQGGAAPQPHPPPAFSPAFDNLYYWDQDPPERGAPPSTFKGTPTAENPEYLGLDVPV

SMILES	EC50
Cc1cc(Nc2ncnc3sc4c(c23)CCN(C(=O)/C=C/CN(C)C)C4)ccc1Oc1ccn2ncnc2c1 [Compound 138, (E)-1-(4-((4-([1,2,4]triazolo[1,5-a]pyridin-7-yloxy)-3-methylphenyl)amino)-5,8-dihydropyrido[4′,3′:4,5]thieno[2,3-d]pyrimidin-7(6H)-yl)-4-(dimethylamino)but-2-en-1-one]	< 100 nM
C#CCOCCN(C)C/C=C/C(=O)N1CCc2c(sc3ncnc(Nc4ccc(Oc5ccc(C)nc5)c(C)c4)c23)C1 [Compound 139]	< 100 nM
COc1ccc(Oc2ccc(Nc3ncnc4sc5c(c34)CCN(C(=O)/C=C/CN3CC[C@H](CO)C3)C5)cc2C)cn1 [Compound 140]	< 100 nM
Cc1ccc(Oc2ccc(Nc3ncnc4sc5c(c34)C(C)N(C(=O)/C=C/CN(C)C)C5)cc2C)cn1 (centres unmarked) [Compound 141, (E)-4-(dimethylamino)-1-(5-methyl-4-((3-methyl-4-((6-methylpyridin-3-yl)oxy)phenyl)amino)-5,7-dihydro-6H-pyrrolo[3′,4′:4,5]thieno[2,3-d]pyrimidin-6-yl)but-2-en-1-one]	< 100 nM
C=CC(=O)N1Cc2sc3ncnc(Nc4ccc(Oc5ccc(C)nc5)c(C)c4)c3c2C(C)C1 (centres unmarked) [Compound 142, 1-(5-methyl-4-((3-methyl-4-((6-methylpyridin-3-yl)oxy)phenyl)amino)-5,6-dihydropyrido[4′,3′:4,5]thieno[2,3-d]pyrimidin-7(8H)-yl)prop-2-en-1-one]	< 100 nM
COc1ccc(Oc2ccc(Nc3ncnc4sc5c(c34)CCN(C(=O)/C=C/CN3CC[C@@H](CO)C3)C5)cc2C)cn1 [Compound 143]	< 100 nM
Cc1ccc(Oc2ccc(Nc3ncnc4sc5c(c34)CCN(C(=O)/C=C/CN3CCO[C@@H](CO)C3)C5)cc2C)cn1 [Compound 144]	100 to 350 nM
Cc1ccc(Oc2ccc(Nc3ncnc4sc5c(c34)CCN(C(=O)/C=C/CN3CCCC(F)(CO)C3)C5)cc2C)cn1 (centres unmarked) [Compound 150]	< 100 nM
Cc1ccc(Oc2ccc(Nc3ncnc4sc5c(c34)CCN(C(=O)/C=C/CN3CC(F)(CO)C3)C5)cc2C)cn1 [Compound 151]	100 to 350 nM
COc1ccc(Oc2ccc(Nc3ncnc4sc5c(c34)C(C)CN(C(=O)/C=C/CN(C)C)C5)cc2C)cn1 (centres unmarked) [Compound 152, (E)-4-(dimethylamino)-1-(4-((4-((6-methoxypyridin-3-yl)oxy)-3-methylphenyl)amino)-5-methyl-5,8-dihydropyrido[4′,3′:4,5]thieno[2,3-d]pyrimidin-7(6H)-yl)but-2-en-1-one]	< 100 nM
Cc1ccc(Oc2ccc(Nc3ncnc4sc5c(c34)CN(C(=O)/C=C/CN(C)C)C5C)cc2C)cn1 (centres unmarked) [Compound 153, (E)-4-(dimethylamino)-1-(7-methyl-4-((3-methyl-4-((6-methylpyridin-3-yl)oxy)phenyl)amino)-5,7-dihydro-6H-pyrrolo[3′,4′:4,5]thieno[2,3-d]pyrimidin-6-yl)but-2-en-1-one]	< 100 nM
Cc1ccc(Oc2ccc(Nc3ncnc4sc5c(c34)CCN(C(=O)/C=C/CN3CCC[C@@H](CO)C3)C5)cc2C)cn1 [Compound 154]	< 100 nM
Cc1ccc(Oc2ccc(Nc3ncnc4sc5c(c34)CCN(C(=O)/C=C/CN3CCC[C@H](CO)C3)C5)cc2C)cn1 [Compound 155]	< 100 nM
Cc1cc(Nc2ncnc3sc4c(c23)CCN(C(=O)/C=C/CN(C)C)C4)ccc1Oc1ccc(N(C)C)nc1 [Compound 158, (E)-4-(dimethylamino)-1-(4-((4-((6-(dimethylamino)pyridin-3-yl)oxy)-3-methylphenyl)amino)-5,8-dihydropyrido[4′,3′:4,5]thieno[2,3-d]pyrimidin-7(6H)-yl)but-2-en-1-one]	< 100 nM
COc1ccc(Oc2ccc(Nc3ncnc4sc5c(c34)CCN(C(=O)/C=C/CN(C)C(C)(C)C)C5)cc2C)cn1 [Compound 163]	< 100 nM
COc1ccc(Oc2ccc(Nc3ncnc4sc5c(c34)CCN(C(=O)/C=C/CN3CCOCC3)C5)cc2C)cn1 [Compound 164]	< 100 nM
Cc1ccc(Oc2ccc(Nc3ncnc4sc5c(c34)CCN(C(=O)/C=C/CN(C)C)CC5)cc2Cl)cn1 [Compound 167, (E)-1-(4-((3-Chloro-4-((6-methylpyridin-3-yl)oxy)phenyl)amino)-8,9-dihydro-5H-pyrimido[5′,4′:4,5]thieno[2,3-d]azepin-7(6H)-yl)-4-(dimethylamino)but-2-en-1-one]	100 to 350 nM
Cc1cc(Nc2ncnc3sc4c(c23)CCN(C(=O)/C=C/CN(C)C)CC4)ccc1Oc1ccn2ncnc2c1 [Compound 168]	100 to 350 nM
Cc1ccc(Oc2ccc(Nc3ncnc4sc5c(c34)C(C)CN(C(=O)/C=C/CN(C)C)C5)cc2Cl)cn1 (centres unmarked) [Compound 171, (E)-1-(4-((3-Chloro-4-((6-methylpyridin-3-yl)oxy)phenyl)amino)-5-methyl-5,6-dihydropyrido[4′,3′:4,5]thieno[2,3-d]pyrimidin-7(8H)-yl)-4-(dimethylamino)but-2-en-1-one]	< 100 nM
Cc1cc(Nc2ncnc3sc4c(c23)CCN(C(=O)/C=C/CN(C)C)CC4)ccc1Oc1ccn2ccnc2c1 [Compound 172, (E)-4-(Dimethylamino)-1-(4-((4-(imidazo[1,2-a]pyridin-7-yloxy)-3-methylphenyl)amino)-8,9-dihydro-5H-pyrimido[5′,4′:4,5]thieno[2,3-d]azepin-7(6H)-yl)but-2-en-1-one]	100 to 350 nM
COc1ccc(Oc2ccc(Nc3ncnc4sc5c(c34)CCN(C(=O)/C=C/CN(C)C)CC5)cc2C)cn1 [Compound 173, (E)-4-(Dimethylamino)-1-(4-((4-((6-methoxypyridin-3-yl)oxy)-3-methylphenyl)amino)-8,9-dihydro-5H-pyrimido[5′,4′:4,5]thieno[2,3-d]azepin-7(6H)-yl)but-2-en-1-one]	100 to 350 nM
Cc1ccc(Oc2ccc(Nc3ncnc4sc5c(c34)C(C)CN(C(=O)/C=C/CN3CCOCC3)C5)cc2C)cn1 (centres unmarked) [Compound 174, (E)-1-(5-Methyl-4-((3-methyl-4-((6-methylpyridin-3-yl)oxy)phenyl)amino)-5,6-dihydropyrido[4′,3′:4,5]thieno[2,3-d]pyrimidin-7(8H)-yl)-4-morpholinobut-2-en-1-one]	< 100 nM
Cc1ccc(Oc2ccc(Nc3ncnc4sc5c(c34)C(C)CN(C(=O)/C=C/CN(C)C(C)(C)C)C5)cc2C)cn1 (centres unmarked) [Compound 175]	< 100 nM

From patent US20240391931A1 (Bristol-Myers Squibb Company, priority 2021, published 2024)
